Tested on: statin-treated hypertriglyceridemic patients with cardiovascular disease or at high risk for cardiovascular disease
Assay: REDUCE-IT: safety, treatment-emergent adverse events (incl. bleeding, atrial fibrillation/flutter, gastrointestinal)
[1] = REDUCE-IT safety population, 4 g/day
[2] = serious bleeding TEAE, % of N = 4089
[3] = serious bleeding TEAE, number (%) of N = 4089
[4] = serious bleeding TEAE, patients, N = 4089

## CC/C=C\C/C=C\C/C=C\C/C=C\C/C=C\CCCC(=O)OCC [icosapent ethyl, eicosapentaenoic acid ethyl ester]
% of N = 4089
  Serious TEAE: (30.6%)
  Serious TEAE Leading to Death: (2.3%)
  Serious TEAE Leading to Withdrawal of Study Drug: (2.2%)
  Subjects with at Least One TEAE: (81.8%)
  TEAE Leading to Withdrawal of Study Drug: (7.9%)
N = 4089, safety population
  Pneumonia, serious treatment-emergent adverse event: % of patients: 2.6%
  Pneumonia, serious treatment-emergent adverse event: number of patients: 105
[1]
  Anemia, adverse event rate: 4.7%
  Atrial fibrillation, adverse event rate: 5.3%
  Diarrhea, adverse event rate: 9%
  Gastrointestinal adverse events, rate: 33.0%
  Peripheral edema, adverse event rate: 6.5%
REDUCE-IT, 4 g/day
  Atrial fibrillation or flutter requiring hospitalization (prespecified adjudicated tertiary endpoint): 3.1%
  Fatal bleeding events: no fatal bleeding events
  Gastrointestinal bleeding (serious): 1.5%
  Serious central nervous system bleeding: 0.3%
  Tolerability: well tolerated
  Treatment-emergent serious adverse events for bleeding, rate: 2.7%
TEAE, system organ class, number (%) of N = 4089
  Gastrointestinal disorders: 1350 (33.0%)
TEAE, number (%) of N = 4089
  Anemia: 191 (4.7%)
  Angina pectoris: 200 (4.9%)
  Arthralgia: 313 (7.7%)
  Atrial fibrillation: 215 (5.3%)
  Back pain: 335 (8.2%)
  Bronchitis: 306 (7.5%)
  Cataract: 233 (5.7%)
  Chest pain: 273 (6.7%)
  Constipation: 221 (5.4%)
  Cough: 241 (5.9%)
  Diarrhea: 367 (9.0%)
  Dizziness: 235 (5.7%)
  Dyspnea: 254 (6.2%)
  Fatigue: 228 (5.6%)
  Gastroesophageal Reflux Disease: 124 (3.0%)
  Hypertension: 320 (7.8%)
  Influenza: 263 (6.4%)
  Nasopharyngitis: 314 (7.7%)
  Nausea: 190 (4.6%)
  Osteoarthritis: 241 (5.9%)
  Pain in extremity: 235 (5.7%)
  Peripheral edema: 267 (6.5%)
  Pneumonia: 263 (6.4%)
  Upper respiratory tract infection: 312 (7.6%)
  Urinary tract infection: 253 (6.2%)
Hospitalization for atrial fibrillation or atrial flutter, number (%) of N = 4089
  Positively Adjudicated Atrial Fibrillation/Flutter: 127 (3.1%)
Number of subjects, N = 4089
  Serious TEAE: 1252
  Serious TEAE Leading to Death: 94
  Serious TEAE Leading to Withdrawal of Study Drug: 88
  TEAE Leading to Withdrawal of Study Drug: 321
Number of subjects, Safety population N = 4089
  Subjects with at Least One TEAE: 3343
[2]
  Aortic Aneurysm Rupture: (0.0%)
  Brain Contusion: (0.0%)
  Catheter Site Hemorrhage: (0.0%)
  Central Nervous System Bleeding: (0.3%)
  Cerebral Hemorrhage: (0.0%)
  Cystitis Hemorrhagic: (0.0%)
  Diverticulitis Intestinal Hemorrhagic: (0.0%)
  Diverticulum Intestinal Hemorrhagic: (0.1%)
  Duodenal Ulcer Hemorrhage: (0.0%)
  Ecchymosis: (0.0%)
  Epistaxis: (0.2%)
  Esophageal Hemorrhage: (0.0%)
  Extravasation Blood: (0.0%)
  Gastric Hemorrhage: (0.0%)
  Gastric Ulcer Hemorrhage: (0.1%)
  Gastrointestinal Angiodysplasia Hemorrhagic: (0.0%)
  Gastrointestinal Bleeding: (1.5%)
  Gastrointestinal Hemorrhage: (0.6%)
  Genital Hemorrhage: (0.0%)
  Hemarthrosis: (0.0%)
  Hematemesis: (0.1%)
  Hematochezia: (0.0%)
  Hematoma: (0.0%)
  Hematuria: (0.2%)
  Hemoptysis: (0.0%)
  Hemorrhagic Anemia: (0.1%)
  Hemorrhagic Duodenitis: (0.0%)
  Hemorrhagic Transformation Stroke: (0.0%)
  Hemorrhoidal Hemorrhage: (0.1%)
  Hemothorax: (0.0%)
  Immune Thrombocytopenic Purpura: (0.0%)
  Intra-Abdominal Hemorrhage: (0.0%)
  Intracranial Hemorrhage: (0.0%)
  Large Intestinal Hemorrhage: (0.0%)
  Lower Gastrointestinal Hemorrhage: (0.1%)
  Mallory-Weiss Syndrome: (0.0%)
  Melaena: (0.1%)
  Menorrhagia: (0.0%)
  Mouth Hemorrhage: (0.0%)
  Other Bleeding: (1.0%)
  Pancreatitis Hemorrhagic: (0.0%)
  Patients with Bleeding-Related Disorders: (2.7%)
  Peptic Ulcer Hemorrhage: (0.0%)
  Pericardial Hemorrhage: (0.0%)
  Post Procedural Hematoma: (0.0%)
  Post Procedural Hematuria: (0.0%)
  Post Procedural Hemorrhage: (0.1%)
  Rectal Hemorrhage: (0.2%)
  Renal Hemorrhage: (0.0%)
  Retinal Hemorrhage: (0.0%)
  Retroperitoneal Hematoma: (0.0%)
  Retroperitoneal Hemorrhage: (0.0%)
  Shock Hemorrhagic: (0.0%)
  Subarachnoid Hemorrhage: (0.0%)
  Subdural Hematoma: (0.2%)
  Subdural Hemorrhage: (0.0%)
  Traumatic Hematoma: (0.0%)
  Traumatic Intracranial Hemorrhage: (0.0%)
  Ulcer Hemorrhage: (0.0%)
  Upper Gastrointestinal Hemorrhage: (0.1%)
  Urinary Bladder Hemorrhage: (0.0%)
[3]
  Bleeding related disorders: 111 (2.7%)
  Central Nervous System Bleeding: 14 (0.3%)
  Gastrointestinal Bleeding: 62 (1.5%)
  Other Bleeding: 41 (1.0%)
[4]
  Aortic Aneurysm Rupture: 1
  Brain Contusion: 0
  Catheter Site Hemorrhage: 0
  Central Nervous System Bleeding: 14
  Cerebral Hemorrhage: 0
  Cystitis Hemorrhagic: 2
  Diverticulitis Intestinal Hemorrhagic: 0
  Diverticulum Intestinal Hemorrhagic: 3
  Duodenal Ulcer Hemorrhage: 2
  Ecchymosis: 1
  Epistaxis: 7
  Esophageal Hemorrhage: 0
  Extravasation Blood: 1
  Gastric Hemorrhage: 1
  Gastric Ulcer Hemorrhage: 3
  Gastrointestinal Angiodysplasia Hemorrhagic: 1
  Gastrointestinal Bleeding: 62
  Gastrointestinal Hemorrhage: 26
  Genital Hemorrhage: 1
  Hemarthrosis: 0
  Hematemesis: 3
  Hematochezia: 1
  Hematoma: 1
  Hematuria: 8
  Hemoptysis: 1
  Hemorrhagic Anemia: 4
  Hemorrhagic Duodenitis: 0
  Hemorrhagic Transformation Stroke: 1
  Hemorrhoidal Hemorrhage: 3
  Hemothorax: 1
  Immune Thrombocytopenic Purpura: 0
  Intra-Abdominal Hemorrhage: 1
  Intracranial Hemorrhage: 0
  Large Intestinal Hemorrhage: 1
  Lower Gastrointestinal Hemorrhage: 5
  Mallory-Weiss Syndrome: 1
  Melaena: 3
  Menorrhagia: 1
  Mouth Hemorrhage: 0
  Other Bleeding: 41
  Pancreatitis Hemorrhagic: 1
  Patients with Bleeding-Related Disorders: 111
  Peptic Ulcer Hemorrhage: 1
  Pericardial Hemorrhage: 0
  Post Procedural Hematoma: 1
  Post Procedural Hematuria: 0
  Post Procedural Hemorrhage: 5
  Rectal Hemorrhage: 10
  Renal Hemorrhage: 0
  Retinal Hemorrhage: 1
  Retroperitoneal Hematoma: 0
  Retroperitoneal Hemorrhage: 1
  Shock Hemorrhagic: 2
  Subarachnoid Hemorrhage: 2
  Subdural Hematoma: 9
  Subdural Hemorrhage: 2
  Traumatic Hematoma: 2
  Traumatic Intracranial Hemorrhage: 0
  Ulcer Hemorrhage: 1
  Upper Gastrointestinal Hemorrhage: 3
  Urinary Bladder Hemorrhage: 1
